In patent publication US4914191A, “Anthracycline derivatives having cytostatic activity” (Behringwerke Aktiengesellschaft, priority 1987, dated 1990):
Values after ≈ are worked out from the molar mass of the structure shown. Counter-ions that a name gives are not always drawn. Like-named read-outs stand apart in the source and are kept apart here.

Experiments:
L1210 leukemia cells = experiment: cross-resistance in vitro, MTT assay on sensitive and adriamycin (doxorubicin)-resistant L1210 leukemia cells; format: cell-based, mouse; details: for Degree of cross-resistance to adriamycin / Degree of resistance of the cell: 3d incubation; for Degree of resistance of the cell: IC50 resistant subline relative to IC50 sensitive line
Protocol: L1210, A 549 or HT 29 in the exponential phase of growth are incubated in a cell density of 5×10^3 cells/ml in RPMI 1640 in a 96-well microtiter plate for 72 hours with various concentrations of the test substance at 37° C., 5% CO2 and 95% relative humidity. Control experiments contain merely growth medium in place of the test substance. Each test substance and the control are determined in quadruplicate. After incubation for 65 hours, 50 μl of MTT solution (2.5 mg/ml in phosphate-buffered saline) are added. In the presence of live cells, MTT is reduced to a dark-red insoluble formazan dyestuff. This reaction is complete after 7 hours (L1210 cells) or after 24 hours (A 549, HT 29 cells), and the supernatant medium is carefully removed by aspiration. The insoluble dyestuff is dissolved by addition of 100 μl of DMSO, and the extinction of the resulting solution at a wavelength of 492 nm is then measured for each well in a Flow 340 CC multiscan photometer.
The ratio of the extinctions of treated and untreated cells yields a dose-effect plot from which the concentration which just kills 50% of the cells (IC50) can be read off. The coefficient of variation for repeat tests is less than 15%.
The cross-resistance between the particular test compound and doxorubicin is determined using the MTT assay (for method, see above) on sensitive and resistant L1210 leukemia cells.
The resistant cell line was established by incubation of a sensitive subline with stepwise increasing concentrations of the reference compound.
The IC50 of the test compound on the resistant subline relative to the IC50 of the sensitive subline yields the degree of resistance both for the test compound (DR(T)) and for the reference compound (DR(R)) in accordance with the formula [formula]
In addition, the degree of cross-resistance (DCR) for the test compound is calculated in accordance with the formula [formula]
In the case where the loss of activity of the test compound on the resistant line related to the sensitive line is greater than that of the reference compound, a degree of cross-resistance of more than 100% is possible.

[1] = system: L1210 mouse leukemia cells; experiment: formation of colonies of L1210 leukemia cells in soft agar; format: cell-based; details: for IC50: Mus musculus
Protocol: The cytostatic activity of the compounds according to the invention was tested using L1210 mouse leukemia cells. This made use of the formation of colonies of L1210 leukemia cells in agar plates. This method is used to detect the effect of the test substances on the growth behavior of the cells over 1 hour or over several generations. With a cell cycle lasting 10-12 hours, this means that about 14 consecutive generations are observed in a test lasting 7 days. In this test, the substances having cytostatic activity according to the invention bring about a reduction in the number of colonies to be observed by comparison with an untreated control sample.
500 leukemia cells per plate were incubated with various concentrations of the test substance at 37° C. for 1 hour. These cells were then washed twice with McCoy5A medium and finally, after addition of 0.3% agar, poured into Petri dishes. Controls were incubated only with fresh medium. In some cases, in place of the incubation for one hour, various concentrations of test substances were mixed with the upper agar layer in order in this way to achieve continuous exposure of the cells throughout the incubation time. After the agar had solidified, the plates were incubated at 37° C. in an incubator for 7 days (5% by vol. CO2, 95% relative humidity). The number of colonies with a diameter of more than 60 μm which had formed was then counted. The results have been given as the number of colonies in treated agar plates as a percentage of the untreated control. The IC50 was determined, as a measure of the activity of the substance, from the dose-effect plot obtained in this way.

[2] = approximative toxicity, intraperitoneal (LD50); details: in vivo, ip
Excerpt: *3xip,q3d: three intraperitoneal administrations with an interval of thre
1xip: one intraperitoneal administration

[3] = L1210, 168 h, read-out: Long-term incubation IC50, continuous exposure, 7 days, L1210 colony formation
[4] = L1210, read-out: 1 h Incubation IC50, 1 h incubation, then 7 days colony formation, L1210
[5] = one intraperitoneal administration, read-out: Approximative toxicity LD50, 1xip
[6] = three intraperitoneal administrations with an interval of three days between each, read-out: Approximative toxicity LD50, 3xip, q3d
[7] = 168 h, continuous exposure, 7 days, L1210 colony formation, read-out: Long-term incubation IC50
[8] = 1 h incubation, then 7 days colony formation, L1210, read-out: 1 h Incubation IC50
[9] = 1 h incubation, then 7 days colony formation, L1210
[10] = continuous exposure, 7 days, L1210 colony formation

SMILES: COc1cccc2c1C(=O)c1c(O)c3c(c(O)c1C2=O)C[C@@](O)(C(=O)CO)C[C@@H]3O[C@H]1C[C@H](N)[C@H](O)[C@H](C)O1 [Adriamycin, reference compound]
- Degree of cross-resistance to adriamycin (L1210 leukemia cells): 100.0%
- Degree of resistance of the cell (L1210 leukemia cells): 60-80
- resistance of the resistant cell line for doxorubicin (L1210 leukemia cells; resistant L1210 line, 4320 min): 60-80 fold
- IC50 [1, 3]: 0.02 µg/mL (≈ 0.0368 µM)
- IC50 [1, 4]: 0.04 µg/mL (≈ 0.0736 µM)

SMILES: CC[C@@]1(O)C[C@H](O[C@H]2C[C@H](N(C)C)[C@H](OC(=O)c3ccccc3)[C@H](C)O2)c2c(O)c3c(c(O)c2[C@H]1O[C@H]1C[C@H](N(C)C)[C@H](OC(=O)c2ccccc2)[C@H](C)O1)C(=O)c1cccc(O)c1C3=O [Compound 1, 7,10-O-Bis-(4'-O-benzoyl-α-L-rhodosaminyl)-β-rhodomycinone]
- LD50 [2, 5]: > 100 mg/kg
- Degree of cross-resistance to adriamycin (L1210 leukemia cells): 0%
- Degree of resistance of the cell (L1210 leukemia cells): 1.0

SMILES: CC[C@@]1(O)C[C@H](O[C@H]2C[C@H](N(C)C)[C@H](OC(=O)c3ccccc3)[C@H](C)O2)c2c(O)c3c(c(O)c2[C@H]1O[C@H]1C[C@H](N(C)C)[C@H](OC(=O)c2ccccc2)[C@H](C)O1)C(=O)c1cccc(O)c1C3=O [Compound 2, HCl adduct of compound 1]
- LD50 [2, 6]: > 85 mg/kg
- IC50 [1, 7]: 0.095 µg/mL
- IC50 [1, 8]: > 1 µg/mL

SMILES: CC[C@@]1(O)C[C@H](O[C@H]2C[C@H](N(C)C)[C@H](OC(=O)c3ccc(OC)cc3)[C@H](C)O2)c2c(O)c3c(c(O)c2[C@H]1O[C@H]1C[C@H](N(C)C)[C@H](OC(=O)c2ccc(OC)cc2)[C@H](C)O1)C(=O)c1cccc(O)c1C3=O [Compound 3, 7,10-O-Bis-(4'-O-p-methoxybenzoyl-α-L-rhodosaminyl)-β-rhodomycinone]
- LD50 [2, 5]: > 100 mg/kg
- IC50 [1, 3]: 0.115 µg/mL (≈ 0.119 µM)
- IC50 [1, 4]: > 1 µg/mL

SMILES: CC[C@@]1(O)C[C@H](O[C@H]2C[C@H](N(C)C)[C@H](OC(=O)c3ccc(OC)cc3)[C@H](C)O2)c2c(O)c3c(c(O)c2[C@H]1O[C@H]1C[C@H](N(C)C)[C@H](OC(=O)c2ccc(OC)cc2)[C@H](C)O1)C(=O)c1cccc(O)c1C3=O [Compound 4, HCl adduct of compound 3]
- 1 h Incubation IC50 [1, 9]: > 1 µg/mL
- Long-term incubation IC50 [1, 10]: 0.09 µg/mL

SMILES: CC[C@@]1(O)C[C@H](O[C@H]2C[C@H](N(C)C)[C@H](OC(=O)c3ccc(C#N)cc3)[C@H](C)O2)c2c(O)c3c(c(O)c2[C@H]1O[C@H]1C[C@H](N(C)C)[C@H](OC(=O)c2ccc(C#N)cc2)[C@H](C)O1)C(=O)c1cccc(O)c1C3=O [Compound 5, 7,10-O-Bis-(4'-O-p-cyanobenzoyl-α-L-rhodosaminyl)-β-rhodomycinon]
- IC50 [1, 3]: 0.105 µg/mL (≈ 0.109 µM)
- IC50 [1, 4]: > 1 µg/mL

SMILES: CC[C@@]1(O)C[C@H](O[C@H]2C[C@H](N(C)C)[C@H](OC(=O)c3ccc(C#N)cc3)[C@H](C)O2)c2c(O)c3c(c(O)c2[C@H]1O[C@H]1C[C@H](N(C)C)[C@H](OC(=O)c2ccc(C#N)cc2)[C@H](C)O1)C(=O)c1cccc(O)c1C3=O [Compound 6, HCl adduct of compound 5]
- 1 h Incubation IC50 [1, 9]: > 1 µg/mL
- Long-term incubation IC50 [1, 10]: 0.14 µg/mL

SMILES: CC[C@@]1(O)C[C@H](O[C@H]2C[C@H](N(C)C)[C@H](OC(=O)c3ccc([N+](=O)[O-])cc3)[C@H](C)O2)c2c(O)c3c(c(O)c2[C@H]1O[C@H]1C[C@H](N(C)C)[C@H](OC(=O)c2ccc([N+](=O)[O-])cc2)[C@H](C)O1)C(=O)c1cccc(O)c1C3=O [Compound 7, 7,10-O-Bis-(4'-O-p-nitrobenzoyl-α-L-rhodosaminyl)-β-rhodomycinone]
- IC50 [1, 3]: 2.1 µg/mL (≈ 2.1 µM)
- IC50 [1, 4]: > 10 µg/mL

SMILES: CC[C@@]1(O)C[C@H](O[C@H]2C[C@H](N(C)C)[C@H](OC(=O)c3ccc(Br)cc3)[C@H](C)O2)c2c(O)c3c(c(O)c2[C@H]1O[C@H]1C[C@H](N(C)C)[C@H](OC(=O)c2ccc(Br)cc2)[C@H](C)O1)C(=O)c1cccc(O)c1C3=O [Compound 8, 7,10-O-Bis-(4'-O-p-bromobenzoyl-α-L-rhodosaminyl)-β-rhodomycinone]
- IC50 [1, 3]: 0.3 µg/mL (≈ 0.281 µM)
- IC50 [1, 4]: > 10 µg/mL

SMILES: CC[C@@]1(O)C[C@H](O[C@H]2C[C@H](N(C)C)[C@H](OC(C)=O)[C@H](C)O2)c2c(O)c3c(c(O)c2[C@H]1O[C@H]1C[C@H](N(C)C)[C@H](OC(C)=O)[C@H](C)O1)C(=O)c1cccc(O)c1C3=O [Compound 9, 7,10-O-Bis-(4'-O-acetyl-α-L-rhodosaminyl)-β-rhodomycinone]
- LD50 [2, 5]: 3.4 to 6.5 mg/kg
- Degree of cross-resistance to adriamycin (L1210 leukemia cells): 6.0%
- Degree of resistance of the cell (L1210 leukemia cells): 6.0
- IC50 [1, 7]: 0.026 µg/mL (≈ 0.0331 µM)
- IC50 [1, 8]: 0.06 µg/mL (≈ 0.0764 µM)

SMILES: CCC(=O)O[C@@H]1[C@H](C)O[C@@H](O[C@H]2C[C@](O)(CC)[C@H](O[C@H]3C[C@H](N(C)C)[C@H](OC(=O)CC)[C@H](C)O3)c3c(O)c4c(c(O)c32)C(=O)c2c(O)cccc2C4=O)C[C@@H]1N(C)C [Compound 10, 7,10-O-Bis-(4'-O-propionyl-α-L-rhodosaminyl)-β-rhodomycinone]
- IC50 [1, 7]: 0.12 µg/mL (≈ 0.148 µM)
- IC50 [1, 8]: 0.25 µg/mL (≈ 0.308 µM)

SMILES: CC[C@@]1(O)C[C@H](O[C@H]2C[C@H](N(C)C)[C@H](OC(=O)c3ccc(OC)cc3)[C@H](C)O2)c2c(O)c3c(c(O)c2[C@H]1O[C@H]1C[C@H](N(C)C)[C@H](O)[C@H](C)O1)C(=O)c1cccc(O)c1C3=O [Compound 12a, 7-O-[(4'-O-p-methoxybenzoyl)-α-L-rhodosaminyl]-10-O-α-L-rhodosaminyl-β-rhodomycinone]
- LD50 [2, 6]: 10 to 15 mg/kg
- Degree of cross-resistance to adriamycin (L1210 leukemia cells): 1.3%
- Degree of resistance of the cell (L1210 leukemia cells): 0.75
- IC50 [1, 7]: 0.0085 µg/mL (≈ 0.0102 µM)
- IC50 [1, 8]: 0.13 µg/mL (≈ 0.156 µM)

SMILES: CC[C@@]1(O)C[C@H](O[C@H]2C[C@H](N(C)C)[C@H](O)[C@H](C)O2)c2c(O)c3c(c(O)c2[C@H]1O[C@H]1C[C@H](N(C)C)[C@H](OC(=O)c2ccc(OC)cc2)[C@H](C)O1)C(=O)c1cccc(O)c1C3=O [Compound 12b, 7-O-α-L-rhodosaminyl-10-O-[4"-O-(p-methoxybenzoyl)-α-L-rhodosaminyl]-β-rhodomycinone]
- LD50 [2, 6]: 5.33 to 10.7 mg/kg
- Degree of cross-resistance to adriamycin (L1210 leukemia cells): 5.0%
- Degree of resistance of the cell (L1210 leukemia cells): 5.0
- IC50 [1, 7]: 0.011 µg/mL (≈ 0.0132 µM)
- IC50 [1, 8]: 0.1 µg/mL (≈ 0.12 µM)

SMILES: CC[C@@]1(O)C[C@H](O[C@H]2C[C@H](N(C)C)[C@H](OC(=O)c3ccccc3)[C@H](C)O2)c2c(O)c3c(c(O)c2[C@H]1O)C(=O)c1cccc(O)c1C3=O [Compound 17, 7-O-(4'-O-benzoyl-α-L-rhodosaminyl)-β-rhodomycinone]
- LD50 [2, 5]: 1 to 10 mg/kg
- IC50 [1, 7]: 0.12 µg/mL (≈ 0.185 µM)
- IC50 [1, 8]: 0.9 µg/mL (≈ 1.39 µM)

SMILES: CC[C@@]1(O)C[C@H](O[C@H]2C[C@H](N(C)C)[C@H](OC(=O)c3ccc(OC)cc3)[C@H](C)O2)c2c(O)c3c(c(O)c2[C@H]1O)C(=O)c1cccc(O)c1C3=O [Compound 18, 7-O-(4'-O-p-Methoxybenzoyl-α-L-rhodosaminyl)-β-rhodomycinone]
- LD50 [2, 5]: 10 to 50 mg/kg
- IC50 [1, 7]: 0.075 µg/mL (≈ 0.111 µM)
- IC50 [1, 8]: 0.66 µg/mL (≈ 0.974 µM)

SMILES: CC[C@@]1(O)C[C@H](O[C@H]2C[C@H](N(C)C)[C@H](OC(=O)c3ccc([N+](=O)[O-])cc3)[C@H](C)O2)c2c(O)c3c(c(O)c2[C@H]1O)C(=O)c1cccc(O)c1C3=O [Compound 19, 7-O-(4'-O-p-Nitrobenzoyl-α-L-rhodosaminyl)-β-rhodomycinone]
- LD50 [2, 5]: > 50 mg/kg
- IC50 [1, 3]: 0.03 µg/mL (≈ 0.0433 µM)
- IC50 [1, 4]: 0.55 µg/mL (≈ 0.794 µM)

SMILES: CC[C@@]1(O)CCc2c(O)c3c(c(O)c2[C@H]1O[C@H]1C[C@H](N(C)C)[C@H](OC(=O)c2ccccc2)[C@H](C)O1)C(=O)c1cccc(O)c1C3=O [Compound 22, 10-O-(4'-O-Benzoyl-α-L-rhodosaminyl)-γ-rhodomycinone]
- LD50 [2, 5]: 1 to 10 mg/kg
- IC50 [1, 7]: 0.48 µg/mL (≈ 0.76 µM)
- IC50 [1, 8]: > 1 µg/mL
